Assay: Filterability evaluation: time period required for filtration through a membrane filter
Format: physicochemical
Conditions: for filterability: neutral to acidic pH, result in words; for Filtration period of aqueous solution: L-arginine 5g/dl, 30°C, 1.4 ℓ, 2 x 10⁵ Pa, Millipore 0.22 µmGS membrane filter
Description: The dried purified crystals were obtained by the three method described above were filtered under the condition shown below to compare the filterability. The pH was adjusted with 2N aqueous solution of HCl, and the filterability was evaluated by determining the time period required for the filtration.
The dried purified crystals obtained by the method described above were filtered under conditions similar to those in Example 1 to evaluate the filterability.

With `N=C(N)NCCC[C@H](N)C(=O)O` [LR-O method, L-arginine] the filterability was “no deterioration of the filterability”, the “Filtration period of aqueous solution” value (pH 3) was 920 s and the “Filtration period of aqueous solution” value (pH 5) was 880 s. The “Filtration period of aqueous solution” value (pH 7) was 910 s and the “Filtration period of aqueous solution” value (pH 11) was 930 s.
For `N=C(N)NCCC[C@H](N)C(=O)O` [Conventional method, L-arginine], the filterability was “extremely poor filterability”, the “Filtration period of aqueous solution” value (pH 3) was “Occlusion” and the “Filtration period of aqueous solution” value (pH 5) was 8000 s. For the same molecule, the “Filtration period of aqueous solution” value (pH 7) was 1510 s and the “Filtration period of aqueous solution” value (pH 11) was 1010 s.
With `N=C(N)NCCC[C@H](N)C(=O)O` [UF method, L-arginine] the filterability was “extremely poor filterability”, the “Filtration period of aqueous solution” value (pH 3) was “Occlusion” and the “Filtration period of aqueous solution” value (pH 5) was 2640 s. For the same molecule, the “Filtration period of aqueous solution” value (pH 7) was 1400 s and the “Filtration period of aqueous solution” value (pH 11) was 850 s.
With `N=C(N)NCCC[C@H](N)C(=O)O` [Solution of purified crystals by LR-O method] [L-arginine] the “Filtration period of aqueous solution” value (pH 3) was 914 s, the “Filtration period of aqueous solution” value (pH 5) was 920 s and the “Filtration period of aqueous solution” value (pH 7) was 918 s. For the same molecule, the “Filtration period of aqueous solution” value (pH 11) was 921 s.

From patent publication EP0714884A1, “A method for the production of a basic amino acid” (Ajinomoto Co., Inc., priority 1994, dated 1996)
